The values that follow come from ChEMBL document CHEMBL5550090, “Synthesis and biological evaluation of 1H-pyrrolo[3,2-g]isoquinolines” (Bioorg Med Chem, 2024).

In test [1] the target is Dual specificity protein kinase CLK1 (Mus musculus) (UniProt P22518). Put plainly: Inhibition of recombinant mouse CLK1 expressed in bacteria assessed as enzyme residual activity using GRSRSRSRSRSR as substrate at 10 uM incubated for 30 mins in presence of ATP by ADP-Glo kinase assay.
The target is the same in test [2]. The test is described as follows: Inhibition of recombinant mouse CLK1 expressed in bacteria assessed as enzyme residual activity using GRSRSRSRSRSR as substrate at 1 uM incubated for 30 mins in presence of ATP by ADP-Glo kinase assay.
The target in test [3] is Dual specificity tyrosine-phosphorylation-regulated kinase 1A (Rattus norvegicus) (UniProt Q63470). The test is described as follows: Inhibition of recombinant rat DYRK1A kinase domain (1 to 499 residues) expressed in bacteria assessed as enzyme residual activity using KKISGRLSPIMTEQ as substrate at 10 uM incubated for 30 mins in presence of ATP by ADP-Glo kinase assay.

For test [4] the target is unchanged. Put plainly: Inhibition of recombinant rat DYRK1A kinase domain (1 to 499 residues) expressed in bacteria assessed as enzyme residual activity using KKISGRLSPIMTEQ as substrate at 1 uM incubated for 30 mins in presence of ATP by ADP-Glo kinase assay.
The target of test [5] is T1, CDK9/cyclin T1 (Homo sapiens) (UniProt O60563+P50750). The test is described as follows: Inhibition of human recombinant CDK9/cyclin T expressed in baculovirus-infected Sf9 cells assessed as enzyme residual activity using YSPTSPSYSPTSPSYSPTSPSKKKK as substrate at 10 uM incubated for 30 mins in presence of ATP by ADP-Glo kinase assay.
The target of test [6] is T1, CDK9/cyclin T1 (Homo sapiens). The test is described as follows: Inhibition of human recombinant CDK9/cyclin T expressed in baculovirus-infected Sf9 cells assessed as enzyme residual activity using YSPTSPSYSPTSPSYSPTSPSKKKK as substrate at 1 uM incubated for 30 mins in presence of ATP by ADP-Glo kinase assay.
The target in test [7] is Glycogen synthase kinase-3 beta (Homo sapiens) (UniProt P49841). Put plainly: Inhibition of human recombinant GSK-3 beta expressed in baculovirus-infected Sf9 cells assessed as enzyme residual activity using YRRAAVPPSPSLSRHSSPHQSpEDEEE as substrate at 10 uM incubated for 30 mins in presence of ATP by ADP-Glo kinase assay.
Test [8] has the same target. The test is described as follows: Inhibition of human recombinant GSK-3 beta expressed in baculovirus-infected Sf9 cells assessed as enzyme residual activity using YRRAAVPPSPSLSRHSSPHQSpEDEEE as substrate at 1 uM incubated for 30 mins in presence of ATP by ADP-Glo kinase assay.
The target of test [9] is Casein kinase I isoform epsilon (Homo sapiens) (UniProt P49674). The test is described as follows: Inhibition of human recombinant CK1 epsilon expressed in baculovirus-infected Sf9 cells assessed as enzyme residual activity using RRKHAAIGSpAYSITA as substrate at 10 uM incubated for 30 mins in presence of ATP by ADP-Glo kinase assay.
Test [10] has the same target. Put plainly: Inhibition of human recombinant CK1 epsilon expressed in baculovirus-infected Sf9 cells assessed as enzyme residual activity using RRKHAAIGSpAYSITA as substrate at 1 uM incubated for 30 mins in presence of ATP by ADP-Glo kinase assay.
For test [11], the target named is T2, Cyclin-dependent kinase 5/CDK5 activator 1 (Homo sapiens) (UniProt Q00535+Q15078). Put plainly: Inhibition of human recombinant CDK5/p25 expressed in bacteria assessed as enzyme residual activity using histone H1 as substrate at 10 uM incubated for 30 mins in presence of ATP by ADP-Glo kinase assay.
Test [12] deals with T2, Cyclin-dependent kinase 5/CDK5 activator 1 (Homo sapiens). The test is described as follows: Inhibition of human recombinant CDK5/p25 expressed in bacteria assessed as enzyme residual activity using histone H1 as substrate at 1 uM incubated for 30 mins in presence of ATP by ADP-Glo kinase assay.
Test [13] addresses T3, Serine/threonine-protein kinase pim-1 (Homo sapiens, UniProt P11309). Put plainly: Inhibition of human recombinant PIM-1 expressed in bacteria assessed as enzyme residual activity using histone H1 as substrate at 10 uM incubated for 30 mins in presence of ATP by ADP-Glo kinase assay.
Target sequence in this assay (P11309 whole entry, looked up): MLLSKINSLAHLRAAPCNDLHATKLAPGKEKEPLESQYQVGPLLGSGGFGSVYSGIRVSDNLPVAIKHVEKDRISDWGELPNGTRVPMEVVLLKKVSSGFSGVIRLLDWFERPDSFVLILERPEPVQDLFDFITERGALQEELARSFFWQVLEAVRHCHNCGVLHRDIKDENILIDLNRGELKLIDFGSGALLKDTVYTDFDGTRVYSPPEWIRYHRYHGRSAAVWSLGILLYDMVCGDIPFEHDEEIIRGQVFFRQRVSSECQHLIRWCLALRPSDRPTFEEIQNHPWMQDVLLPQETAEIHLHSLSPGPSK
Test [14] deals with T3, Serine/threonine-protein kinase pim-1. The test is described as follows: Inhibition of human recombinant PIM-1 expressed in bacteria assessed as enzyme residual activity using histone H1 as substrate at 1 uM incubated for 30 mins in presence of ATP by ADP-Glo kinase assay.
Target sequence in this assay (P11309 whole entry, looked up): as above
The test system of test [15] is U2OS. The test is described as follows: Induction of cell cycle arrest in human U2OS cells assessed as proportion of cells at G1 phase at 2.5 uM incubated for 24 hrs by flow cytometry (reference value: 45%). The test is classed as functional.
In test [16] the test system is U2OS. The test is described as follows: Induction of cell cycle arrest in human U2OS cells assessed as proportion of cells at S phase at 2.5 uM incubated for 24 hrs by flow cytometry (reference value: 39%). The test is classed as functional.
For test [17], the system named is U2OS. Put plainly: Induction of cell cycle arrest in human U2OS cells assessed as proportion of cells at G2/M phase at 2.5 uM incubated for 24 hrs by flow cytometry (reference value: 16%). It counts as functional.
For test [18], the system named is U2OS. Put plainly: Induction of cell cycle arrest in human U2OS cells assessed as proportion of cells at G1 phase at 5 uM incubated for 24 hrs by flow cytometry (reference value: 45%). It counts as functional.
Test [19] concerns U2OS. The test is described as follows: Induction of cell cycle arrest in human U2OS cells assessed as proportion of cells at S phase at 5 uM incubated for 24 hrs by flow cytometry (reference value: 39%). It counts as functional.
Test [20] has as its system U2OS. Put plainly: Induction of cell cycle arrest in human U2OS cells assessed as proportion of cells at G2/M phase at 5 uM incubated for 24 hrs by flow cytometry (reference value: 16%). It counts as functional.
Test [21] relates to TERT-RPE1. Put plainly: cells. To be noted: Homo sapiens, RPE-1, 48 h.
Description: Cytotoxicity against human TERT-RPE1 cells assessed as reduction in cell viability incubated for 48 hrs by MTS assay
The subject of test [22] is HBL-100. The test is described as follows: cells. The following applies: Homo sapiens, HBL-100, 48 h.
Description: Antiproliferative activity against human HBL-100 cells assessed as reduction in cell viability incubated for 48 hrs by MTS assay
Test [23] relates to HCT-116. Put plainly: cells. The following applies: Homo sapiens, HCT-116, 48 h.
Description: Antiproliferative activity against human HCT-116 cells assessed as reduction in cell viability incubated for 48 hrs by MTS assay
Test [24] deals with SH-SY5Y. The test is described as follows: cells. To be noted: Homo sapiens, 48 h.
Description: Antiproliferative activity against human SH-SY5Y cells assessed as reduction in cell viability incubated for 48 hrs by MTS assay
Test [25] concerns U2OS. The test is described as follows: cells. The following applies: Homo sapiens, 48 h.
Description: Antiproliferative activity against human U2OS cells assessed as reduction in cell viability incubated for 48 hrs by MTS assay
In test [26] the target is T4, Serine/threonine-protein kinase haspin (Homo sapiens, UniProt Q8TF76).
T4 sequence (Q8TF76 whole entry): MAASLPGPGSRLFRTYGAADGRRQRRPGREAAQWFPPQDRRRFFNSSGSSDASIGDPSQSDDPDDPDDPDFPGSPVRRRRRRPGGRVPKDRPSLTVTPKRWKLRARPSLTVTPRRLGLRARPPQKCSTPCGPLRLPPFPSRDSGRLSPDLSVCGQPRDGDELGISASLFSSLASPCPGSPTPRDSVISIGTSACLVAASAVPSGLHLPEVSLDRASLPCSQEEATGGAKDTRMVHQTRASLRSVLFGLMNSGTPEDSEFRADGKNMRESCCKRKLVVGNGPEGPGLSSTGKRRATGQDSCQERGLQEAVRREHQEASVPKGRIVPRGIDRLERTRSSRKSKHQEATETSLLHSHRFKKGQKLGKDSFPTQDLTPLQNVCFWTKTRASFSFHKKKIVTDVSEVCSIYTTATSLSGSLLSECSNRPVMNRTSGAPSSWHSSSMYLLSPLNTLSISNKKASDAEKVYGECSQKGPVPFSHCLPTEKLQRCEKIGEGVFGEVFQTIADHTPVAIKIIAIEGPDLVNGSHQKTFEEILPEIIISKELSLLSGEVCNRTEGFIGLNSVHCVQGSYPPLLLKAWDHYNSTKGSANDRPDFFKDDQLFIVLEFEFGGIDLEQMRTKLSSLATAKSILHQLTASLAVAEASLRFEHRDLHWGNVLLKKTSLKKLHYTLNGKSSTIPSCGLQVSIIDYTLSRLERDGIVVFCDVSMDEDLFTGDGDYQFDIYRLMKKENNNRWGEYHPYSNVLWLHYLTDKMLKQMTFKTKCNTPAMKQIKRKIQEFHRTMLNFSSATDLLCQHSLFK
The test is described as follows: Inhibition of recombinant human Haspin kinase domain (470 to 798 residues) expressed in bacteria using histone H3 (1 to 21) peptide as substrate incubated for 30 mins in presence of ATP by ADP-Glo kinase assay.

Test [27] addresses Dual specificity protein kinase CLK1 (Mus musculus, UniProt P22518). Put plainly: Inhibition of recombinant mouse CLK1 expressed in bacteria using GRSRSRSRSRSR as substrate incubated for 30 mins in presence of ATP by ADP-Glo kinase assay.
Test [28] deals with Dual specificity tyrosine-phosphorylation-regulated kinase 1A (Rattus norvegicus, UniProt Q63470). The test is described as follows: Inhibition of recombinant rat DYRK1A kinase domain (1 to 499 residues) expressed in bacteria using KKISGRLSPIMTEQ as substrate incubated for 30 mins in presence of ATP by ADP-Glo kinase assay.
The target of test [29] is CDK9/cyclin T1 (Homo sapiens, UniProt P50750). The test is described as follows: Inhibition of human recombinant CDK9/cyclin T expressed in baculovirus-infected Sf9 cells using YSPTSPSYSPTSPSYSPTSPSKKKK as substrate incubated for 30 mins in presence of ATP by ADP-Glo kinase assay.
For test [30], the species on record is Homo sapiens. Put plainly: Selectivity index, ratio of IC50 for human recombinant CDK9/cyclin T expressed in baculovirus-infected Sf9 cells to IC50 for recombinant human Haspin kinase domain (470 to 798 residues) expressed in bacteria.
The target of test [31] is T3, Serine/threonine-protein kinase pim-1. Put plainly: Inhibition of human recombinant PIM-1 expressed in bacteria using histone H1 as substrate incubated for 30 mins in presence of ATP by ADP-Glo kinase assay.
Target sequence in this assay (P11309 whole entry): as the sequence (P11309 whole entry, looked up) above
Test [32] is described as follows: Selectivity index, ratio of IC50 for recombinant mouse CLK1 expressed in bacteria to IC50 for recombinant human Haspin kinase domain (470 to 798 residues) expressed in bacteria.

Chain of Dual specificity protein kinase CLK1 (P22518 whole entry, the tested form may be a part): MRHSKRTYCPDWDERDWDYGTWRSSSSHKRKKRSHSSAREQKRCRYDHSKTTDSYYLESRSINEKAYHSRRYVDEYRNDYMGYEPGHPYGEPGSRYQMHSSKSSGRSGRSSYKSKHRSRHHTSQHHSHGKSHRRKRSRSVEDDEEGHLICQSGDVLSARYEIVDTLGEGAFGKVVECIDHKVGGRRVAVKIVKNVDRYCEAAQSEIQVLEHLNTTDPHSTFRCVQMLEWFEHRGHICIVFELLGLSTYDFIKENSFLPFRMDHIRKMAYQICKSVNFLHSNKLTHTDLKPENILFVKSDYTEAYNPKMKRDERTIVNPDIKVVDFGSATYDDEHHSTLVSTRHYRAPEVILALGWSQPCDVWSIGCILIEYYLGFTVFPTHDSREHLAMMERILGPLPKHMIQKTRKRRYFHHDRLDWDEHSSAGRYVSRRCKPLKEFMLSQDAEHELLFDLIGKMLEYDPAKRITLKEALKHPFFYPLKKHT
Chain of Dual specificity protein kinase CLK1 (Mus musculus) (P22518 whole entry, looked up): as the sequence (P22518 whole entry, the tested form may be a part) above
Chain of Glycogen synthase kinase-3 beta (Homo sapiens) (P49841 whole entry, looked up): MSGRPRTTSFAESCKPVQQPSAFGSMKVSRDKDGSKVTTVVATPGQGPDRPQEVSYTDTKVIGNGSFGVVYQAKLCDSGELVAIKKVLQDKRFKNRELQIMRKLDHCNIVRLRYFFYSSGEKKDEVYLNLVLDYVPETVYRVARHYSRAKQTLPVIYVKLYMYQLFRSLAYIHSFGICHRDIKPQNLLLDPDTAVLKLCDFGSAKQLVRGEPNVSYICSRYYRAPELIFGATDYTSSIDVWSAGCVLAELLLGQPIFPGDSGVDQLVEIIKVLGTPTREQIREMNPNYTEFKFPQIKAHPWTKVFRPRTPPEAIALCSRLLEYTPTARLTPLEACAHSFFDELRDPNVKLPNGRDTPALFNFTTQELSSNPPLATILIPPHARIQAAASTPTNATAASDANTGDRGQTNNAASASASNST
Chain of Casein kinase I isoform epsilon (Homo sapiens) (P49674 whole entry, looked up, canonical isoform): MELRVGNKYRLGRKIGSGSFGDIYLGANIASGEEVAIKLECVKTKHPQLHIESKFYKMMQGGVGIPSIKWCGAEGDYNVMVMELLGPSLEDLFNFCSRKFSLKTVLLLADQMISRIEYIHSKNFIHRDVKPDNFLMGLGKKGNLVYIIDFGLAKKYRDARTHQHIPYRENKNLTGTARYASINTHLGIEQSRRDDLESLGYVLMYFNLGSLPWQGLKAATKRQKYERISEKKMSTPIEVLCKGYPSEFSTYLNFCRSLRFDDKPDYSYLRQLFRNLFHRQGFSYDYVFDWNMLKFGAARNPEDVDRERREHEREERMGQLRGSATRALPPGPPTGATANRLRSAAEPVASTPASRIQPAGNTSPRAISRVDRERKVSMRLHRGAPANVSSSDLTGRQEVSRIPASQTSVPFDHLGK
T2 sequence (Q00535 whole entry): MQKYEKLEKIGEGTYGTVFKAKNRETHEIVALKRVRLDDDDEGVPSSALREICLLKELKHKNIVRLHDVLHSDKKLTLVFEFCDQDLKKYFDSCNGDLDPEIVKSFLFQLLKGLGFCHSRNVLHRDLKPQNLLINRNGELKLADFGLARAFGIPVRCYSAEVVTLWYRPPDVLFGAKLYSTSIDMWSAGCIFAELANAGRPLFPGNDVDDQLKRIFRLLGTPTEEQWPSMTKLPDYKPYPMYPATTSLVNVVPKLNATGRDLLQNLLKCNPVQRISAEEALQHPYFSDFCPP
T2 sequence (Q15078 99-307 partner limits assumed): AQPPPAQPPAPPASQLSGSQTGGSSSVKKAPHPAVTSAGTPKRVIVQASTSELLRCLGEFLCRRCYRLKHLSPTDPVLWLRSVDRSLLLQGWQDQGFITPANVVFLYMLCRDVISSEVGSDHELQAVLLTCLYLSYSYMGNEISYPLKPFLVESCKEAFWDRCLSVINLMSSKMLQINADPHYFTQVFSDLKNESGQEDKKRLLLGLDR
Chain of CDK9/cyclin T1 (O60563 whole entry, the tested form may be a part): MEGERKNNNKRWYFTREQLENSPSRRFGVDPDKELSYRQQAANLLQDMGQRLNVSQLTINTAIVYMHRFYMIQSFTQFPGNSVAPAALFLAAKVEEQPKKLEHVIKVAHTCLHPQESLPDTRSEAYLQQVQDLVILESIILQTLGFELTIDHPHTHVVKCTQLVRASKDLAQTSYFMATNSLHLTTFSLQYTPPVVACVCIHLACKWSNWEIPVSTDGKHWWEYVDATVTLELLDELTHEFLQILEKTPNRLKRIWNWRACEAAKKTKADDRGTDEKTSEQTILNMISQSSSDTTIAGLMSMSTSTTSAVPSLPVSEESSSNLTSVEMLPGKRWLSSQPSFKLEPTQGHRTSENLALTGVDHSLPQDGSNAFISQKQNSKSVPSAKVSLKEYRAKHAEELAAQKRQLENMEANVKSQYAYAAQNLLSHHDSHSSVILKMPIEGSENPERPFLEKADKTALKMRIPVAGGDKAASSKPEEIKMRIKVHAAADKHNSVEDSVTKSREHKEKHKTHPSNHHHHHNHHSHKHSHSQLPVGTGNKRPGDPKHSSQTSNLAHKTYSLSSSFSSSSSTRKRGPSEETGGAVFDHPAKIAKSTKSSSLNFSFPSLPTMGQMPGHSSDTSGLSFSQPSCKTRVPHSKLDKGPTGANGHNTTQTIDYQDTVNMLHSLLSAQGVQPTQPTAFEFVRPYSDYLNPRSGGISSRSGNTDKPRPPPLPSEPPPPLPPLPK
Chain of CDK9/cyclin T1 (P50750 whole entry, the tested form may be a part): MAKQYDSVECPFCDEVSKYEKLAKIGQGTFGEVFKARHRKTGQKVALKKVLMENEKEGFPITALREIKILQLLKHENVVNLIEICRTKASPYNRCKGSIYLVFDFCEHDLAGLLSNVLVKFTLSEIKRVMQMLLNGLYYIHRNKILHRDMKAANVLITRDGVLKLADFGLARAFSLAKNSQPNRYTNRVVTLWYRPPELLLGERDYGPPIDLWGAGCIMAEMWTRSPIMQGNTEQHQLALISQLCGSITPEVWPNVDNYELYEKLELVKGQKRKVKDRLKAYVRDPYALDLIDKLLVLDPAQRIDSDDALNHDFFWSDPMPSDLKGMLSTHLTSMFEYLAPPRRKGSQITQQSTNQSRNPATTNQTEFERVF

Regarding `CCn1ncc2cc3cnccc3c(N)c21`, the Activity in test [1] was 8%; in test [2] it was 34%; in [3], 6%; in test [4], 23%; in test [5], 50%; in test [6], 80%. The Activity in test [7] is 42%; in test [8], 82%; in test [9] it was 48%; in test [10], 84%; in test [11] it was 28%; in [12], 65%. For the same molecule, the Activity in test [13] worked out at 60%; in test [14] it was 91%; in test [15], 44%; in test [16], 40%; in [17] it was 16%; in test [18], 32%. Besides, the Activity in [19] came to 43%; in test [20], 25%. The half-maximal effective concentration (EC50) in test [21] was determined as 300 nM; in test [22], 7300 nM; in test [23], 1200 nM; in test [24], 1200 nM; in test [25], 2700 nM.
In the case of `N#Cc1c[nH]c2cc3cnccc3cc12`, the IC50 in test [26] amounted to 75 nM; in [27], 360 nM; in test [28], 182 nM; in test [29] it was 178 nM. Besides, the Activity in test [1] worked out at 0%; in test [2], 19%; in test [3] it was 5%; in [4], 38%; in test [5], 6%; in [6], 34%. Further, the Activity in test [7] came to 26%; in test [8] it was 59%; in test [9] it was 47%; in [10] it was 92%; in test [11] it was 34%; in test [12], 69%. In addition, the Activity in test [13] is 95%; in test [14] it was 100%. Moreover, the Ratio IC50 in test [30] is 2.4.
In the case of `Nc1nccc(-c2c[nH]c3cc4cnccc4cc23)n1`, the IC50 came to 122 nM in test [26], 205 nM in test [27], 560 nM in test [28] and 225 nM in test [31]. Moreover, the Activity in [1] worked out at 5%; in test [2], 16%; in test [3] it was 0%; in test [4] it was 25%; in test [5], 16%; in test [6], 56%. The Activity stood at 35% in test [7]; 76% in [8]; 10% in test [9]; 46% in [10]; 21% in [11]; 79% in test [12]. In addition, the Activity in test [13] worked out at 4%; in [14] it was 20%. Further, the Ratio IC50 in test [32] came out at 1.7.
With `O=Cc1c[nH]c2cc3cnccc3cc12`, the half-inhibitory concentration (IC50) in test [26] is 158 nM; in test [27] it was 182 nM; in test [28], 495 nM; in test [29] it was 151 nM. Further, the Activity in test [1] stood at 26%; in test [2], 53%; in [3], 7%; in [4], 21%; in test [5] it was 7%; in [6], 7%. Further, the Activity in test [7] was determined as 23%; in test [8], 55%; in test [9], 34%; in [10], 80%; in test [11] it was 57%; in test [12], 84%. The Activity in test [13] came to 33%; in [14], 64%. Further, the Ratio IC50 in test [30] is 0.96.
